Literature values as cited in patent publication US7858803B2, “Imaging tracers for early detection and treatment of amyloid plaques caused by Alzheimer's disease and related disorders” (The General Hospital Corporation, priority 2007, dated 2010).

Columns and labels:
[1] = normal mice, iv, at 2 min after injection
brain amyloid deposits = details: APP23 transgenic mice, brain sections at 180 min after iv injection

CNc1ccc(C=Cc2nc3ccc(OCCF)cc3o2)cc1 [BF-168, 6-(2-fluoroethoxy)-2-[2-(4-methylaminophenyl)ethenyl]-benzoxazole]
initial brain uptake [1]: 3.9 % injected dose/gm | labeling of brain amyloid deposits in autoradiograms (brain amyloid deposits): selective labeling of brain amyloid deposits with little non-specific binding
